Measured values taken from patent US9616028B2, “Bilayer tablet formulations” (AstraZeneca AB, priority 2009, dated 2017).

Test system: patients with inadequately controlled type 2 diabetes
Experimental: The data represent findings from a randomized, double-blind, placebo-controlled study of 546 individuals with type 2 diabetes whose HbA1c was greater than or equal to 7.0 percent and less than or equal to 10 percent at baseline. […] Patients in all arms also received metformin (greater than or equal to 1500 mg/d). […] Exploratory endpoints included body weight decrease of greater than or equal to 5 percent or greater than or equal to 10 percent as well as body weight percent change from baseline.

CCOc1ccc(Cc2cc([C@@H]3O[C@H](CO)[C@@H](O)[C@H](O)[C@H]3O)ccc2Cl)cc1 [dapagliflozin, (2S,3R,4R,5S,6R)-2-(4-chloro-3-(4-ethoxybenzyl)phenyl)-6-(hydroxymethyl)tetrahydro-2H-pyran-3,4,5-triol]
mean reductions in body weight compared to individuals taking placebo (add-on to metformin, 24 weeks): statistically greater
adjusted mean change in FPG from baseline at Week 24 (dapagliflozin 10 mg plus metformin): -23.5 mg/dL
patients who achieved weight losses greater than or equal to 5 percent compared to placebo (exploratory endpoint, add-on to metformin, 24 weeks): more patients
